The source of these data is patent publication US10028992B2, “Methods of treating muscular dystrophy” (BOARD OF REGENTS OF THE NEVADA SYSTEM OF HIGHER EDUCATION …, priority 2012, dated 2018).

The subject of the assay is α7 integrin promoter. In words: muscle cell-based assay: α7βgal+/− myoblasts/myotubes, LacZ reporter, β-galactosidase cleavage of FDG. Further details: species or system mouse. As to conditions: for AC50 / Emax: Mus musculus; for AC50: log of AC50, given with negative sign, unit of AC50 not given, read-out: Fit Log AC50 (converted); for Emax: read-out: Max Response [%]. The protocol: An α7 integrin null mouse was produced in which exon 1 of the gene encoding the α7 integrin was replaced by the LacZ reporter. In these mice, all the transcriptional regulatory elements of the α7 integrin promoter were retained, allowing β-galactosidase to report expression of 7 integrin. A primary myoblast cell line (designated α7βgal^+/−) isolated from 10 day old α7^+/− pups were analyzed for the ability of β-galactosidase to report α7 integrin expression. α7βgal^+/− myoblasts were differentiated and subjected to X-gal staining and western analysis (FIGS. 1A and 1B).
The activity of the α7 integrin promoter was measured by β-galactosidase cleavage of the non-fluorescent compound fluorescein di-β-D-galactopyranoside (FDG) to fluorescein. This assay was used to screen compound libraries to identify molecules that up-regulate α7 integrin expression in muscle.
Also evaluated was the effect of various isoforms of laminin and the ligand for α7β1 integrin on integrin expression. Positive hits were subjected to dose-response analysis, western analysis and a myostatin counterscreen (a negative regulator of muscle growth).

Setting [1] is: Table 12, fitted activity at zero concentration.
[2] abbreviates: Table 12 Compound data, concentration-response curve fit.

Where two headings read alike, the source gives them in different places.

Regarding `C/C(CC(=O)Nc1ccc(Cl)c(C(F)(F)F)c1)=N\NC(=O)c1cnccn1` [Compound 38], the Emax turned out to be 72.7%. Moreover, the AC50 (Table 12) was 4.47 µM. The “Fit HillSlope” value (Table 12, curve fit) amounted to 4.9549. Under setting [1], the “Fit Zero Activity [%]” value is reported as −2.0156%. The “Fit Curve Class” value (Table 12, key not given) is 1.2. This molecule also yielded a Score under setting [2] of 63.
Consider `Cc1ccc(-c2onc3ccc(C(=O)/C=C/N(C)C)cc23)cc1` [Compound 39], for which the Emax came to 69.1%. In addition, under “Table 12”, the half-maximal activity concentration (AC50) is 3.55 µM. Further, for the setting “Table 12, curve fit”, the “Fit HillSlope” value is reported as 1.7529. Moreover, the “Fit Zero Activity [%]” value under setting [1] is recorded as −9.0026%. For the same molecule, the “Fit Curve Class” value (Table 12, key not given) came to 1.2. The molecule also returned a Score under setting [2] of 63.
`Cc1cccn2c(=O)c3cc(C(=O)NC4CCCCC4)n(C)c3nc12` [Compound 40]: the Emax worked out at 427%. Further, the AC50 (Table 12) is 14.1 µM. The “Fit HillSlope” value (Table 12, curve fit) is 4.5045. Besides, the “Fit Zero Activity [%]” value under setting [1] is reported as −3.212%. Also, the “Fit Curve Class” value (Table 12, key not given) was 2.1. Under setting [2], this molecule came in with a Score of 48.
Turning to `COc1ccc(Cl)cc1NC(=O)CC(=O)Nc1cc(Cl)ccc1OC` [Compound 41], the Emax was found to be 453%. The AC50 (Table 12) is 14.1 µM. The “Fit HillSlope” value (Table 12, curve fit) was found to be 4.5045. For the same molecule, under setting [1], the “Fit Zero Activity [%]” value stood at 8.8874%. The “Fit Curve Class” value (Table 12, key not given) is given as 2.1. This molecule yielded a Score under setting [2] of 48.
In the case of `COc1cc(/C=C/CN2CCN(Cc3ccc(C)o3)C(CCO)C2)ccc1O` (stereo not drawn) [Compound 42], the Emax was determined as 481%. Moreover, under “1.530 μM”, the “Activity at 1.530 μM [%] **” value stood at 0%. For the same molecule, the concentration at half-maximal activity (AC50) (Table 12) is 14.1 µM. Under “Table 12, curve fit”, the “Fit HillSlope” value stood at 4.9549. In addition, under setting [1], the “Fit Zero Activity [%]” value is on record as 9.6207%. Under “Table 12, key not given”, the “Fit Curve Class” value is reported as 2.1. The Score under setting [2] was found to be 48.
Take `O=C(Cn1cccc1C(=O)c1ccccc1)NCCCc1ccccc1` [Compound 43]: the Emax was determined as 131%. In addition, the AC50 (Table 12) was 3.98 µM. Moreover, under “Table 12, curve fit”, the “Fit HillSlope” value came out at 0.9. Further, the “Fit Zero Activity [%]” value under setting [1] is on record as 0%. Further, the “Fit Curve Class” value (Table 12, key not given) came to 2.1. Besides, the Score under setting [2] came out at 47.
For `CC(=O)Nc1ccc(N(C(=O)c2cnccn2)C(C(=O)NC2CCCCC2)c2ccc(F)cc2)cc1` (stereo not drawn) [Compound 44], the Emax turned out to be 308%. Besides, the AC50 (Table 12) is 11.2 µM. Also, for the setting “Table 12, curve fit”, the “Fit HillSlope” value is recorded as 4.095. In addition, the “Fit Zero Activity [%]” value under setting [1] was −17.6073%. The “Fit Curve Class” value (Table 12, key not given) was 2.1. Under setting [2], this molecule yielded a Score of 47.
As for `COc1ccc(N2CCCC2)c(NC(=O)c2ccc([N+](=O)[O-])o2)c1` [Compound 46], the Emax was found to be 156%. Further, the AC50 (Table 12) is 7.94 µM. Also, under “Table 12, curve fit”, the “Fit HillSlope” value is reported as 1.01. Moreover, the “Fit Zero Activity [%]” value under setting [1] is recorded as −35.6022%. Where the note is “Table 12, key not given”, the “Fit Curve Class” value worked out at 2.1. Under setting [2], this molecule had a Score of 46.
As for `CC(=O)Nc1ccc(NC(=O)[C@@H](NC(=O)c2cccc(C)c2)C(C)C)cc1` [Compound 47], the Emax was found to be 142%. Further, the AC50 (Table 12) was 5.62 µM. For the same molecule, the “Fit HillSlope” value (Table 12, curve fit) was found to be 1.331. Further, the “Fit Zero Activity [%]” value under setting [1] was 12.5272%. Moreover, the “Fit Curve Class” value (Table 12, key not given) was found to be 2.1. Besides, under setting [2], the Score is 46.
On to `O=C(O)c1cc(/N=C/c2c(O)oc3ccccc3c2=O)ccc1O` [Compound 48], for which the Emax is 165%. In addition, the AC50 (Table 12) is 7.08 µM. In addition, the “Fit HillSlope” value (Table 12, curve fit) worked out at 1.7137. The “Fit Zero Activity [%]” value under setting [1] is given as −35.4511%. The “Fit Curve Class” value (Table 12, key not given) was 2.1. The Score under setting [2] amounted to 46.
For the molecule `O=[N+]([O-])c1ccc(N2CCN(c3ccccc3F)CC2)nc1` [Compound 49], the Emax is 151%. Further, where the note is “Table 12”, the AC50 is 5.62 µM. For the same molecule, the “Fit HillSlope” value (Table 12, curve fit) turned out to be 1.9282. Moreover, under setting [1], the “Fit Zero Activity [%]” value turned out to be 2.973%. Further, the “Fit Curve Class” value (Table 12, key not given) came out at 2.1. This molecule also came in with a Score under setting [2] of 46.
As for `O=C1SC(Cc2ccccc2)C(=O)N1c1ccccc1` (stereo not drawn) [Compound 50], the Emax amounted to 176%. Moreover, where the note is “Table 12”, the AC50 was 7.94 µM. Further, under “Table 12, curve fit”, the “Fit HillSlope” value is reported as 1.8851. The “Fit Zero Activity [%]” value under setting [1] stood at 5.0579%. For the same molecule, the “Fit Curve Class” value (Table 12, key not given) is 2.1. In addition, the Score under setting [2] came out at 46.
Consider `Cc1ccc(NCc2nnc(SCC(=O)Nc3nnc(C)s3)n2C)cc1` [Compound 51], for which the Emax stood at 249%. The half-maximal activity concentration (AC50) (Table 12) was 10 µM. The “Fit HillSlope” value (Table 12, curve fit) amounted to 4.9549. Besides, the “Fit Zero Activity [%]” value under setting [1] is listed as −23.8252%. Moreover, where the note is “Table 12, key not given”, the “Fit Curve Class” value is recorded as 2.1. Further, the Score under setting [2] was determined as 46.
In the case of `CC1CCCCN1c1ncnc(N)c1[N+](=O)[O-]` (stereo not drawn) [Compound 52], the Emax amounted to 130%. Further, the AC50 (Table 12) was 4.47 µM. The “Fit HillSlope” value (Table 12, curve fit) is on record as 1.4781. In addition, the “Fit Zero Activity [%]” value under setting [1] is reported as −27.7073%. Moreover, the “Fit Curve Class” value (Table 12, key not given) was 2.1. Under setting [2], this molecule yielded a Score of 46.
As to `O=C(Nc1ccc(Cl)cc1N1CCOCC1)C1CCCCC1` [Compound 53], the Emax was 119%. The “Activity at 0.307 μM [%] **” value (0.307 μM) is recorded as 0%. Also, the half-maximal activity concentration (AC50) (Table 12) was 7.08 µM. Further, for the setting “Table 12, curve fit”, the “Fit HillSlope” value turned out to be 0.8. Besides, the “Fit Zero Activity [%]” value under setting [1] is −11.267%. The “Fit Curve Class” value (Table 12, key not given) is listed as 2.1. Besides, the Score under setting [2] was 45.
On to `CCCn1c(-c2cc(OC)c(OC)c(OC)c2)nc2c1c(=O)[nH]c(=O)n2Cc1ccccc1` [Compound 54], for which, under “Table 12”, the AC50 was 12.6 µM. Further, the “Fit HillSlope” value (Table 12, curve fit) came to 1.1341. Under setting [1], the “Fit Zero Activity [%]” value is 39.3368%. The “Fit Curve Class” value (Table 12, key not given) was 2.1. This molecule gave a Score under setting [2] of 45.
For `CS(=O)(=O)c1ccc(Cl)c(NC(=O)CSc2nncn2-c2ccccc2)c1` [Compound 55], in that order: 12.6 µM, 4.9549, −18.4203%, 2.1 and 45.
For `CC(C)(CC(=O)O)CC(=O)N1CCCN(c2nccc(C(F)(F)F)n2)CC1` [Compound 56], in that order: 3.98 µM, 1.5095, 21.8862%, 2.1 and 45.
Regarding `COc1cc(CNCc2ccc(C(=O)O)cc2)ccc1OCc1ccc(F)cc1.Cl` [Compound 57], the concentration at half-maximal activity (AC50) (Table 12) is 4.47 µM. Moreover, for the setting “Table 12, curve fit”, the “Fit HillSlope” value is 1.7529. Moreover, the “Fit Zero Activity [%]” value under setting [1] is −0.5596%. Further, under “Table 12, key not given”, the “Fit Curve Class” value amounted to 2.1. The molecule also registered a Score under setting [2] of 45.
On the same counts, the results for `COc1ccc(Nc2ncnc3ccc(C)cc23)cc1` [Compound 58] are 3.55 µM, 0.9, −42.3624%, 2.1 and 45.
With `COc1ccc(-n2c(C)c(C(C)=O)c3cc(OC(C)=O)ccc32)cc1` [Compound 59], the AC50 (Table 12) was 10 µM. Further, the “Fit HillSlope” value (Table 12, curve fit) was 3.5722. The “Fit Zero Activity [%]” value under setting [1] is reported as −3.6299%. The “Fit Curve Class” value (Table 12, key not given) is reported as 2.1. This molecule also showed a Score under setting [2] of 45.
For the molecule `O=C(COC(=O)c1cc2ccccc2oc1=O)Nc1ccc(F)cc1F` [Compound 60], for the setting “Table 12”, the concentration at half-maximal activity (AC50) was 4.47 µM. Where the note is “Table 12, curve fit”, the “Fit HillSlope” value is listed as 1.7529. Under setting [1], the “Fit Zero Activity [%]” value is −12.5146%. Besides, the “Fit Curve Class” value (Table 12, key not given) amounted to 2.1. The Score under setting [2] was determined as 45.
For `CCNC(=O)CSc1nc(-c2ccc(F)cc2)cs1` [Compound 61], in that order: 5.01 µM, 1.1705, −3.94%, 2.1 and 45.
Turning to `CC(C)NC(=O)CN1CCN(C(=O)CCl)CC1.Cl` [Compound 62], for the setting “Table 12”, the AC50 was 7.08 µM. Under “Table 12, curve fit”, the “Fit HillSlope” value turned out to be 1.9673. In addition, under setting [1], the “Fit Zero Activity [%]” value is recorded as −23.864%. Besides, the “Fit Curve Class” value (Table 12, key not given) came to 2.1. This molecule came in with a Score under setting [2] of 45.
For `CS(=O)(=O)N(Cc1ccc(C(=O)NC2CCCC2)cc1)c1ccccc1` [Compound 63], the AC50 (Table 12) was 10 µM. The “Fit HillSlope” value (Table 12, curve fit) is 3.1925. Moreover, the “Fit Zero Activity [%]” value under setting [1] is −1.7425%. Further, under “Table 12, key not given”, the “Fit Curve Class” value is on record as 2.1. Further, under setting [2], the Score was 45.
On the same counts, the results for `C=CCN(CC=C)C(=O)c1ccc(OC2CCN(S(=O)(=O)N(C)C)CC2)cc1` [Compound 64] are 5.01 µM, 2.4729, −4.9734%, 2.1 and 45.
Consider `O=C(O)CCn1cc(/C=C2/NC(=S)N(c3ccccc3)C2=O)c(-c2ccccc2)n1` [Compound 65], for which the “Curve Description” value is on record as “Partial”, the “Fit Curve Class” value came out at 2.1, the “Fit HillSlope” value stood at 4.095 and the “Fit Infinite Activity [%]” value came to 501.215%. For the same molecule, the “Fit Log AC50” value is given as −4.7, the “Fit Zero Activity [%]” value worked out at 9.2299% and the Score was found to be 45.
Regarding `CCc1nnc(NC(=O)c2ccc(S(=O)(=O)NCC(C)C)cc2)s1` [Compound 66], for the setting “Table 12”, the half-maximal activity concentration (AC50) was 12.6 µM. For the same molecule, the “Fit HillSlope” value (Table 12, curve fit) was determined as 4.5045. Besides, the “Fit Zero Activity [%]” value under setting [1] worked out at 11.9175%. The “Fit Curve Class” value (Table 12, key not given) was found to be 2.1. Also, the Score under setting [2] was found to be 45.

By AC50 is commonly meant the concentration at which the activity in the assay is half-maximal.
